# Laboratory results from patent US20250345350A1, “TREATING PAIN ASSOCIATED WITH CENTRAL SENSITIZATION” (Medicon Pharmaceuticals, Inc., priority 2022, published 2025).
# Several values for one entry are separate records, joined by “and”; a condition that tells them apart may be missing. Equal values may be shown once.
# Legend:
# [1] = test system: vincristine-induced pain associated with central sensitization in C57BL/6J mice; assay: Mechanical allodynia (von Frey), vincristine-induced pain, topical PS 8% (Example 2); type: in vivo, mouse
# Text: (§1) Food and water were available ad libitum.
# (§2) Protocol for the Treatment of Established Pain Associated with Central Sensitization with PS
# (§3) Paw withdrawn, licking or shaking were considered positive responses.
# [2] = test system: NTG-induced migraine in mice; assay: PWT (von Frey), NTG-induced migraine mouse model, intraperitoneal clinical compounds (Example 15); settings: 30 min after single i.p. dose given 30 min after NTG; topiramate 30 mg/kg, sumatriptan 600 μg/kg, propranolol 10 mg/kg, gabapentin 30 mg/kg
# Method: In line with the earlier Examples, migraine was induced using 0.4 mg of NTG administered sublingually in the form of a finely crushed 0.4 mg NTG tablet (Greenstone Brand).
# A single intraperitoneal dose of topiramate (30 mg/kg), sumatriptan (600 μg/kg), propranolol (10 mg/kg), gabapentin (30 mg/kg) or vehicle was administered 30 min after the induction of migraine, at the indicated doses.
# Group 1: baseline (i.e, no NTG treatment) • 2. Group 2: vehicle • 3. Group 3: topimarate • 4. Group 4: sumatriptan • 5. Group 5: propanolol • 6. Group 6: gabapentin
# Mechanical allodynia was determined using the method of von Frey filaments in line with that performed in the earlier Examples. The PWT test was performed 30 minutes after compound or vehicle control administration. The mechanical threshold, expressed as g, indicates the force of the von Frey filament to which the animal reacted.
# [3] = test system: NTG-induced chronic migraine in mice; assay: PWT (von Frey), NTG-induced chronic migraine model, intraperitoneal topiramate and sumatriptan (Example 17); type: in vivo, mouse
# Method: The NTG-induced chronic migraine model was used as described previously.
# sumatriptan (600 μg/kg), or vehicle was administered.
# . Group 1: NTG+vehicle (n=8) • 2. Group 2: NTG+topiramate (n=8) • 3. Group 3: NTG+sumatriptan (n=8)
# [4] = test system: chronic constriction injury-induced peripheral neuropathy in C57BL/6J mice; assay: PWT (von Frey), chronic constriction injury model of PTPN, topical (Example 7); settings: day 14, PS 5% gel or sulindac 0.7% gel on left paw three times a day for 14 days, pregabalin once by oral gavage 1 h before
# Method: Group 1: ligation only (i.e, surgical control with no treatment, n=5-7) • 2. Group 2: vehicle control (n=5-7) • 3. […] Group 4: 0.7% sulindac (n=5-7) • 5.
# Briefly, for determining mechanical allodynia, pain threshold responses were measured using the well-established method of von Frey filaments in line with that performed in the earlier Examples. The PWT test was performed on day 14. The mechanical threshold, expressed as g, indicates the force of the von Frey filament to which the animal reacted.
# [5] = test system: NTG-induced chronic migraine in mice; assay: PWT (von Frey), NTG-induced chronic migraine model, oral (Example 16)
# Method: In particular, mice receive sublingual NTG 0.4 mg in the form of a finely crushed 0.4 mg NTG tablet (Greenstone Brand) every two days, receiving a total of five doses. For control mice, an NTG placebo (Practi-Nitroglycerin Sublingual 0.4 mg Simulated Medication tablet) was administered in the same way.
# Group 1: placebo NTG (i.e, no NTG treatment, n=8) • 2. Group 2: NTG (n=8) • 3. Group 3: NTG+vehicle (n=8) • 4. […] Group 5: NTG+sulindac (n=8)
# Mechanical allodynia was determined using von Frey filaments in line with that performed in the earlier Examples. The PWT test was performed prior to NTG (or placebo NTG) administration to determine baseline values, as indicated. […] The mechanical threshold, expressed as g, indicates the force of the von Frey filament to which the animal reacted.
# [6] = test system: NTG-induced migraine in C57BL/6J mice; assay: PWT (von Frey), NTG-induced migraine mouse model, topical (Example 13); settings: confirmation of NTG model
# Method: Specifically, instead of the intraperitoneal injection of NTG, a finely crushed 0.4 mg NTG tablet (Greenstone Brand) was administered sublingually. As a control, a Practi-Nitroglycerin Sublingual 0.4 mg Simulated Medication tablet was used.
# For determining mechanical allodynia, pain threshold responses were measured using the well-established method of von Frey filaments in line with that performed in the earlier Examples.
# The PWT test, assessing mechanical allodynia, was performed 30 minutes after treatment. The mechanical threshold, expressed as g, indicates the force of the von Frey filament to which the animal reacted.
# [7] = test system: paclitaxel-induced central sensitization in C57/BL/6J mice
# Method: Regarding the treatment with lidocaine: 5% lidocaine cream (a positive control) was applied once to both hind paws of the mice 30 minutes before measurement of PWT.
# Briefly, for mechanical allodynia, pain threshold responses were measured using the well-established method of von Frey filaments in line with that performed in the earlier Examples. The PWT test was performed on day-8 (before the first dose of paclitaxel), the day of starting treatment (day 0, at which central sensitization was fully established) and day 14 (treatment continued until day 15). The mechanical threshold, expressed as g, indicates the force of the von Frey filament to which the animal reacted.
# [8] = test system: paclitaxel-induced central sensitization in C57/BL/6J mice; assay: Cold allodynia (acetone test), paclitaxel model (Example 3); type: in vivo, mouse; settings: after paclitaxel treatment
# Method: To determine the outcome of treatment, assessment of mechanical allodynia was performed. […] Both methods of assessing allodynia are described in Toma W, et al. Neuropharmacology 2017; 117:305-15. Mechanical and cold allodynia are determined at least one day apart in the same animal.
# The acetone test was used. Briefly, acetone was applied onto the plantar surface of each hind paw. The time each mouse spent licking, lifting, and/or shaking the hind paw recorded over 60 seconds was the score for cold allodynia. Measurements were performed on day-8 (before the first paclitaxel injection), the day of starting treatment (day 0) and then on day 15.
# [9] = test system: paclitaxel-induced CIPN in C57BL/6J mice; assay: PWT (von Frey), mouse model of CIPN, oral administration (Example 5); type: in vivo; settings: day 7; oral gavage three times a day for 7 days, PS 50 mg/kg, sulindac 33 mg/kg
# Text: CIPN was induced in mice with chemotherapeutic agents using established protocols (Carozzi et al, 2010; Currie et al, 2019; Eldridge et al, 2020). […] This dosing regimen of paclitaxel produces pain associated with CIPN with time courses that are similar to those of pain after paclitaxel administration in cancer patients.
# Group 1: naive mice (i.e. no paclitaxel, n=8) • 2. Group 2: paclitaxel only (n=8) • 3. Group 3: paclitaxel plus vehicle (n=8) • 4. […] Group 5: paclitaxel plus sulindac (n=8)
# The PWT test was performed on day 7.
# [10] = test system: paclitaxel-induced pain associated with central sensitization in C57BL/6J mice; assay: Mechanical allodynia (von Frey), paclitaxel-induced pain, topical PS 8% (Example 2); type: in vivo, mouse
# Text: as §1, §3
# [11] = test system: paclitaxel-induced central sensitization in C57/BL mice; assay: Paw withdrawal threshold (von Frey), paclitaxel model, topical PS (Example 1); settings: day 10, about 30 min after last application; PS 8% hydrogel topically to both hind paws 3 times a day for 10 days
# Method: The paclitaxel was administered into all study groups once a day for 3 days.
# The first doses were administered 2 days after the last administration of paclitaxel.
# The study groups were as follows: • 1. Group 1: paclitaxel only (n=9) • 2. Group 2: paclitaxel plus vehicle (n=10) • 3.
# In order to determine the outcome of the treatment, pain threshold responses were measured using the well-established method of von Frey filaments. […] The results of the PWT test are expressed as force applied (gm). […] The data is expressed as percent change from the respective baseline value.
# [12] = test system: oxaliplatin-induced pain associated with central sensitization in C57BL/6J mice; assay: Mechanical allodynia (von Frey), oxaliplatin-induced pain, topical PS 8% (Example 2); type: in vivo, mouse; settings: day 0, in the two study groups respectively; cumulative 30 mg/kg i.p.
# Text: as §1, §2, §3
# [13] = PS and metabolites in proximal and distal half of the sciatic nerve (Example 25); type: in vivo, mouse; settings: mouse, in vivo
# Method: In a separate experiment we studied 8 mice with paclitaxel-induced PN treated with PS 8% ointment 3×/d for 2 wks. Mice were euthanized as above 30 minutes after the last dose of PS. From these mice we harvested both sciatic nerves dividing each into proximal and distal halves, and combined the corresponding halves of every two animals for assay of drug levels.
# [14] = test system: STZ-induced central sensitization in Sprague-Dawley rats; assay: PWT (von Frey), streptozotocin rat model of central sensitization (Example 4); type: in vivo
# Method: Sprague-Dawley rats were fasted for 4-6 hours before being injected intraperitoneally with 45 mg/kg STZ. This was performed for all experimental groups, except the naive group. In order to prevent hypoglycaemic death, rats received 10% sucrose water as the sole water source for the first 48 hours after injection. In order to ensure only those rats considered diabetic (i.e., having non-fasting plasma glucose levels of >250 mg/dL) were included in the study, blood glucose was measured at 72 hours after the STZ injection.
# Four weeks after STZ injection, the rats were randomised into treatment groups. This delay between STZ injection and treatment allows the establishment of chronic pain (allodynia) associated with central sensitization. […] 5% lidocaine cream (positive control) was applied only once to both hind paws of the rats 30 minutes before measurement of PWT.
# The rats were split into 8 study groups, with those in the experimental groups (1-4) having an average body weight of about 225 g, and those in the control groups (5-8) having an average body weight of about 335 g, as follows: • 1. Group 1: naive rats (n=5) • 2. Group 2: STZ only (n=6) • 3. Group 3: STZ plus vehicle (n=6) • 4. […] Group 5: STZ plus oral vehicle (n=8) • 6. Group 6: STZ plus 0.7% sulindac hydrogel (n=7) • 7. Group 7: STZ plus 5% lidocaine cream (n=8) • 8.
# [15] = Baseline, prior to NTG administration
# [16] = Post-compound administration, 30 min after single i.p. dose, topiramate 30 mg/kg, sumatriptan 600 μg/kg
smiles,measurement,setting,value
CC[C@]1(O)C[C@H]2CN(CCc3c([nH]c4ccccc34)[C@@](C(=O)OC)(c3cc4c(cc3OC)N(C=O)[C@H]3[C@@](O)(C(=O)OC)[C@H](OC(C)=O)[C@]5(CC)C=CCN6CC[C@]43[C@@H]65)C2)C1 [vincristine],"mechanical allodynia score, mean±SEM",[1]; day 0,0.7 ± 0.07 g
same,reduction of mechanical allodynia score by vincristine,"[1]; day 0 vs day -7, three groups, cumulative 3 mg/kg i.p.",61%-65%
same,"mechanical allodynia score, mean±SEM",[1]; day 16,0.8 ± 0.09 g
"CNS(=O)(=O)Cc1ccc2[nH]cc(CCN(C)C)c2c1 [Sumatriptan, sumatriptan]","PWT, g Mean ± SEM",[2],1.34 ± 0.12 g
same,"PWT, g Mean ± SEM",[3]; [15],1.90 ± 0.06 g
same,"PWT, g Mean ± SEM",[3]; Day 12 (pre-treatment),0.57 ± 0.02 g
same,"PWT, g Mean ± SEM",[3]; [16],1.33 ± 0.17 g
"CC1(C)O[C@@H]2[C@@H](CO[C@@]3(COS(N)(=O)=O)OC(C)(C)O[C@@H]23)O1 [Topiramate, topiramate]","PWT, g Mean ± SEM",[2],1.40 ± 0.14 g
same,"PWT, g Mean ± SEM",[3]; [15],2.40 ± 0.24 g
same,"PWT, g Mean ± SEM",[3]; Day 12 (pre-treatment),0.60 ± 0.00 g
same,"PWT, g Mean ± SEM",[3]; [16],1.76 ± 0.11 g
"CC(C)C[C@H](CN)CC(=O)O [pregabalin, reference compound]","PWT, g Mean ± SEM",[4],1.1 ± 0.10 g
same,"PWT, g Mean ± SEM",[4]; listed as Pregabalin,1.1 ± 0.10 g
"O=[N+]([O-])OCC(CO[N+](=O)[O-])O[N+](=O)[O-] [NTG, nitroglycerin]","PWT, g Mean ± SEM",[5]; [15],1.95 ± 0.18 g
same,"PWT, g Mean ± SEM","[5]; Day 11, orally once a day for 11 days concurrent with NTG, PS 50 mg/kg, sulindac 33 mg/kg",0.66 ± 0.11 g
same,"PWT, g 30 min Mean ± SEM",[6]; 30 min after sublingual NTG 0.4 mg,0.70 ± 0.12 g
same,"PWT, g 60 min Mean ± SEM",[6]; 60 min after sublingual NTG 0.4 mg,0.51 ± 0.05 g
"CC(=O)O[C@H]1C(=O)[C@@]2(C)[C@H]([C@H](OC(=O)c3ccccc3)[C@]3(O)C[C@H](OC(=O)[C@H](O)[C@@H](NC(=O)c4ccccc4)c4ccccc4)C(C)=C1C3(C)C)[C@]1(OC(C)=O)CO[C@@H]1C[C@@H]2O [Paclitaxel, paclitaxel, reference compound]","mechanical allodynia score, mean±SEM","[7]; day 0, after paclitaxel, central sensitization fully established",0.55 ± 0.05 g
same,cold allodynia score (acetone test),[8],7.1 ± 0.4 s
same,"PWT, g Mean ± SEM",[9],0.53 ± 0.03 g
same,"mechanical allodynia score, mean±SEM","[10]; day 0 (initiation of treatment), paclitaxel-induced pain",0.78 ± 0.08 g
same,"mechanical allodynia score, mean±SEM","[10]; day 16, PS 8% ointment 3x/day to hind paws",0.57 ± 0.05 g
same,reduction of mechanical allodynia scores by paclitaxel,"[10]; paclitaxel administered over 12 days, cumulative 32 mg/kg i.p.",~85%
same,"PWT, % baseline Mean ± SEM",[11],86.75 ± 5.42 % baseline
"O=C1[O][Pt]2([NH][C@@H]3CCCC[C@H]3[NH]2)[O]C1=O [oxaliplatin, reference compound]",reduction of allodynia score during oxaliplatin administration,[12],65% and 56%
"CC1=C(CC(=O)O)c2cc(F)ccc2/C1=C\c1ccc(S(C)(=O)=O)cc1 [Sulindac sulfone, sulindac sulfone]","Distal half of sciatic nerve, mean ± SEM",[13],0.9 ± 0.2 µM
same,Fold difference (distal vs proximal),[13],4.5 fold
same,"Proximal half of sciatic nerve, μM, mean ± SEM",[13],0.2 ± 0.08 µM
"CN(N=O)C(=O)N[C@H]1C(O)O[C@H](CO)[C@@H](O)[C@@H]1O (mixture of isomers) [STZ, streptozotocin]","PWT, gm Mean ± SEM","[14]; week 7, PS 8% hydrogel to both hind paws 3 times a day for 3 weeks from week 4 after STZ",15.7 ± 0.84 gm
CCN(CC)CC(=O)Nc1c(C)cccc1C [lidocaine],"PWT, g Mean ± SEM","[7]; day 14, PS hydrogel 5% or 0.7% sulindac 3 times a day, 5% lidocaine cream once 30 min before, pregabalin 10 mg/kg orally once 1 h before",1.48 ± 0.12 g
same,"PWT, gm Mean ± SEM","[14]; 0.7% sulindac hydrogel 3 times a day for 1 week, 5% lidocaine cream once 30 min before, pregabalin 10 mg/kg orally once 1 h before",26.0 ± 1.8 gm
"CC(C)NCC(O)COc1cccc2ccccc12 (stereo not drawn) [Propanolol, propranolol]","PWT, g Mean ± SEM",[2],1.37 ± 0.14 g
"NCC1(CC(=O)O)CCCCC1 [Gabapentin, gabapentin]","PWT, g Mean ± SEM",[2],1.44 ± 0.25 g
